Results published in PMC9873984, “Membrane cholesterol regulates inhibition and substrate transport by the glycine transporter, GlyT2” (Life Science Alliance, 2023).
Changes are numbered by the printed parent chain. pIC50: −log10 of the molar value.

What was measured:
GlyT2 T512A mutant = target: T1, GlyT2 T512A mutant (Homo sapiens, UniProt Q9Y345, T512A); assay: Inhibitor concentration–responses on glycine transport currents, two-electrode voltage clamp; assay type: cell-based; set-up: expressed in transfected cells; host or cells: Xenopus laevis oocytes injected with mutant RNA (pOTV vector); details: for pIC50: T512A GlyT2 in Xenopus laevis oocytes
T1 sequence (Q9Y345 1-797 T512A): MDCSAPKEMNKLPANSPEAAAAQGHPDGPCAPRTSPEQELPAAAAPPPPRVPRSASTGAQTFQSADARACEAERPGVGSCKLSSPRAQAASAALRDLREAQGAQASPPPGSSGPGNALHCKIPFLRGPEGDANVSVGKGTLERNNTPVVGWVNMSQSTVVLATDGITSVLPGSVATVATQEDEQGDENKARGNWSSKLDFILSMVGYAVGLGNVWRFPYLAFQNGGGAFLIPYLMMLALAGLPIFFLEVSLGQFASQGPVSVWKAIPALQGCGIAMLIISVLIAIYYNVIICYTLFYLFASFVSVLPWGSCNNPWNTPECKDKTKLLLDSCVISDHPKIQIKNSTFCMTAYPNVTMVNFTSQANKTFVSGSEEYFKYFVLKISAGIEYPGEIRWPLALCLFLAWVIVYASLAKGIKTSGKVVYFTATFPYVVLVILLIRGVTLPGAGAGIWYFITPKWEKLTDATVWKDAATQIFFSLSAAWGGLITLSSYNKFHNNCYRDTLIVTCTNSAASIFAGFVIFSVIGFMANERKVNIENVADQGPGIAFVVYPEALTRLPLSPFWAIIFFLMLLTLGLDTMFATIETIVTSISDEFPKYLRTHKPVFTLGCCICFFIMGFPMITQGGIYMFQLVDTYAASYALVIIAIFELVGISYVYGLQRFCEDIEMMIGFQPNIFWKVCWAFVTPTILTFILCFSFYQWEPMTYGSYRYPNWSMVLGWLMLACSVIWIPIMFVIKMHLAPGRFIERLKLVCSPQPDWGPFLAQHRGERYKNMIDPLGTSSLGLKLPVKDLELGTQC
Protocol: (§1) Because of the slowly reversible nature of the compounds tested, inhibitor concentration–responses were performed cumulatively. An EC50 concentration of glycine was applied until a stable transport current was reached. EC50 concentrations of glycine were used to produce reliable currents for each transporter, and as the inhibitors are non-competitive, application of varying glycine concentrations is unlikely to affect their activity. Increasing concentrations of inhibitors were co-applied with glycine with each concentration producing a distinct plateau before the subsequent concentration was applied. Inhibitor concentration–responses were limited to a maximum concentration of 3 µM to mitigate the risk of changes to the free drug concentration because of micelle formation. Currents after the plateau of each inhibitor concentration were normalized to the current produced by application of glycine alone and fit using the method of least squares: Y=Bottom+(Top−Bottom)/(1+10^[X−LogIC50]), where X is log [inhibitor], Y is current normalized to glycine in the absence of inhibitor, and Top and Bottom are the maximal and minimal plateaus, respectively. The method of least squares was constrained to have the bottom value >0 and the hill slope as −1, enabling the calculation of IC50 values and the extent of inhibition produced by the maximal concentration applied.
(§2) IC50 values are presented as the mean and 95% confidence interval, whereas inhibition values are presented as the mean ± SEM. Data sets are n ≥ 5 from two batches of oocytes.

GlyT2 Y430F mutant = target: T2, GlyT2 Y430F mutant (Homo sapiens, UniProt Q9Y345, Y430F); assay: as above; assay type: cell-based; set-up: expressed in transfected cells; host or cells: Xenopus laevis oocytes injected with mutant RNA (pOTV vector); details: for pIC50: Y430F GlyT2 in Xenopus laevis oocytes
T2 sequence (Q9Y345 1-797 Y430F): T1 sequence (Q9Y345 1-797 T512A) with Y430F, A512T
Protocol: as §1, §2

Row | pIC50 (GlyT2 T512A mutant; 95% CI could not be fit) | Inhibition at 1 µM (column head 3 μM, footnote b) (GlyT2 T512A mutant; T512A, 1 µM) | pIC50 (GlyT2 Y430F mutant) | Inhibition at 1 µM (column head 3 μM, footnote b) (GlyT2 Y430F mutant; Y430F, 1 µM) | pIC50 (GlyT2 T512A mutant) | Inhibition at 3 μM (GlyT2 T512A mutant; T512A) [%] | Inhibition at 3 μM (GlyT2 Y430F mutant; Y430F) [%] | Compound
1 | 5.77 | 44.1 ± 2.8^b % | 6.72 | 71.0 ± 3.3^*b % |  |  |  | CCCCCCCC/C=C\CCCCCCCC(=O)O[C@H](CC(=O)[O-])C[N+](C)(C)C [Oleoyl-L-Carnitine, oleoyl-L-carnitine]
2 |  |  | 6.69 |  | 6.26 | 50.7 ± 5.7 | 76.7 ± 2.8 | CCCCCCCC/C=C\CCCCCCCC(=O)N[C@@H](CC(C)C)C(=O)O [Oleoyl-L-Leucine, oleoyl-L-leucine]
3 |  |  | 6.91 |  | 6.17 | 68.0 ± 1.7 | 92.9 ± 1.7 | CCCCCCCC/C=C\CCCCCCCC(=O)N[C@@H](CCCCN)C(=O)O [Oleoyl-L-Lysine, oleoyl-L-lysine]
4 |  |  | 6.90 |  | 7.07 | 74.4 ± 4.5 | 84.5 ± 3.6 | CCCCCCCC/C=C\CCCCCCCC(=O)N[C@@H](Cc1c[nH]c2ccccc12)C(=O)O [Oleoyl-L-Tryptophan, oleoyl-L-tryptophan]
